Reference: PMC9382192, “Combined treatment with epigenetic agents enhances anti-tumor activity of MAGE-D4 peptide-specific T cells by upregulating the MAGE-D4 expression in glioma” (Frontiers in Oncology, 2022)

Assays:
U87 = assay: Granzyme A and perforin ELISA, T cells with U87; format: cell-based, human; details: T cells stimulated by TSA-treated U87, E:T 50:1, 4 h
Protocol: The human glioma cell lines (U87-MG and U251) were obtained from the Cell Bank of Type Culture Collection of the Chinese Academy of Science (Shanghai, China). […] A3656), valproic acid (VPA, CAS No. 99-66-1), and trichostatin A (TSA, CAS No. 58880-19-6) were purchased from Sigma-Aldrich Corporation (St. Louis, MO, USA). DAC and TSA were dissolved in DMSO to a concentration of 10 mM. Aliquots were stored at −80°C and diluted with media before being used. […] Four hours later, suspended cells were collected for CD107a flow cytometry, meanwhile, the supernatant was collected and analyzed with granzyme A and perforin ELISA kit (Cloud-Clone Corporation, Wuhan, China) at 450 nm, and the LDH kit (Promega, USA) at 490 nm. The percentage of specific lysis was calculated using the following formula: [(experimental release − spontaneous release)/(maximum release − spontaneous release)] × 100. […] Then, the cytotoxicity assay was measured and calculated as mentioned above.

U87 cell-derived tumors = assay: In vivo xenograft tumor model; set-up: species or system BALB/C nude female mice
Protocol: Eighteen BALB/C nude female mice aged 4 weeks were provided by the Guangxi Experimental Animal Center. The mice were placed in a light-controlled room at 24 ± 1 °C (light: 7:00–19:00 h, dark: 19:00–7:00 h) and fed under specific pathogen-free conditions. All protocols followed the guidelines of the National Research Council for the Care and Use of Laboratory Animals and were approved by the Animal Ethics Committee of Guangxi Medical University. To develop a xenograft model, 4 × 10^6 U87 cells were inoculated into the flanks of the mice subcutaneously. Two weeks later, mice simultaneously received intraperitoneal peritumorally injections of TSA (0.5 mg/kg) and 1 × 10^7 peptides loaded on CD8^+ T cells, respectively. Every […], tumor volumes were measured simultaneously with a caliper. Mice were sacrificed by euthanasia when visibly ill. Mice injected with negative peptide-induced CTLs and CTLs without peptides were included as controls. The tumor volumes were calculated using the following formula: tumor volume = [(width2 × length)/2].

IL-2 = IL-2 ELISA of DC/T-cell co-culture supernatant; format: cell-based, human; details: 72 h co-culture supernatant, versus negative control peptide
Protocol: (§1) Production of cytokines in the supernatants was determined using commercially available ELISA kits (Cloud-Clone Corporation, Wuhan, China) according to the protocol of the manufacturer. Approximately 50 μl of supernatant and different concentration standards were added and mixed with 100 μl of horseradish peroxidase (HRP) labeled detection antibody against a 96-well plate, respectively, except for the blank control. After incubation at 37°C for 60 min, we washed the plate five times. Add substrate A and substrate B 50 μl respectively, incubate for 15min in a 37°C incubator in dark. Then, 50 μl of stop solution was added and a 450 nm absorbance value (OD value) was measured within 15 min. The regression equation of the standard curve is calculated according to the concentration of the standard substance and the OD value, and the corresponding sample concentration is calculated on the basis of the regression equation.

IFN-γ = IFN-γ ELISA of DC/T-cell co-culture supernatant; format: cell-based, human; details: 72 h co-culture supernatant, compared to T cells alone
Protocol: as §1

U251 = assay: LDH cytotoxicity assay and HLA block, U251; format: cell-based, human
Protocol: The human glioma cell lines (U87-MG and U251) were obtained from the Cell Bank of Type Culture Collection of the Chinese Academy of Science (Shanghai, China). Decitabine (DAC, CAS No. A3656), valproic acid (VPA, CAS No. 99-66-1), and trichostatin A (TSA, CAS No. 58880-19-6) were purchased from Sigma-Aldrich Corporation (St. Louis, MO, USA). DAC and TSA were dissolved in DMSO to a concentration of 10 mM. Aliquots were stored at −80°C and diluted with media before being used. Drug treatments were divided into seven groups: (1) DAC group: cells were cultured in medium on the presence of 1 μM DAC for 120 h; (2) VPA group: cells were grown in medium containing 1 mM VPA for 120 h; (3) TSA group: cells were cultured in medium supplemented with 1 μM TSA for 24 h; (4) D + V group: cells were cultured with 1 μM DAC and 1 mM VPA for 120 h; (5) D + T group: cells were cultured with 1 μM DAC for 120 h, followed by 1 μM TSA for 24 h; (6) Control group: cells were cultured with 0.09% DMSO, which is the highest concentration of DMSO used in this study in consideration of the potential toxicity of DMSO to living cells. Human recombinant interleukin (IL) IL-2, IL-4, and human recombinant granulocyte/macrophage colony-stimulating factor (GM-CSF) were purchased from R&D Systems.
The cytotoxic activity of MAGE-D4 peptide-specific CTLs to glioma cells was determined according to the instructions of the manufacturers by our published method ([31]). […] Four hours later, suspended cells were collected for CD107a flow cytometry, meanwhile, the supernatant was collected and analyzed with granzyme A and perforin ELISA kit (Cloud-Clone Corporation, Wuhan, China) at 450 nm, and the LDH kit (Promega, USA) at 490 nm. The percentage of specific lysis was calculated using the following formula: [(experimental release − spontaneous release)/(maximum release − spontaneous release)] × 100. […] Then, the cytotoxicity assay was measured and calculated as mentioned above.

Row | Compound | granzyme A and perforin secreted by T cells (U87) | tumor volume (U87 cell-derived tumors; U87 pre-treated with TSA versus U87, both inoculated with P8-specific T cells, TSA 0.5 mg/kg) | tumor growth (U87 cell-derived tumors; group treated with TSA versus group treated without TSA) | IL-2 secreted by DC-stimulated T cells (IL-2) | IFN-γ secretion by T cells (ELISA) (IFN-γ) | cytotoxicity of peptide-specific T cells (specific lysis, LDH) (U251; DAC + TSA-treated U251, E:T 50:1, 4 h) | killing efficiency after HLA I block (U251; target cells pre-incubated with HLA-ABC antibody 50 μg/ml, 37°C 40 min, versus groups without anti-HLA antibodies, Figure 6I) | tumor volume (U87 cell-derived tumors; U87 xenograft, 1 × 10^7 peptide-specific CD8+ T cells, compared with DC + Tc and NC-DC + Tc groups)
1 | CC(/C=C/C(=O)NO)=C\[C@@H](C)C(=O)c1ccc(N(C)C)cc1 [TSA, trichostatin A] | more granzyme A and perforin | smaller | slower | – | – | – | – | –
2 | CLPPPNVIL [Peptide P8] | the most granzyme A and perforin | – | – | higher IL-2 | high levels of IFN-γ | cytotoxicity on the DAC + TSA-treated U251 cells with statistical significance | significantly decreased | significantly reduced
